{
  "source": "patent US10478455B2",
  "about": "“Therapeutic use of tetrathiomolybdate” (UCL BUSINESS LTD, priority 2010, dated 2019)",
  "key": {"Male Wistar rats [1]": {"test_system": "Male Wistar rats", "test": "Study 1: oxygen consumption and carbon dioxide production in awake rats in a metabolic cart", "assay_type": "in vivo, rat", "experimental": "Male Wistar rats (300 g) were anaesthetised and instrumented with a venous line for drug administration. The animals were placed into a metabolic cart and allowed to recover from anaesthesia. After 2 h, TTM was administered i.v. hourly at increasing doses (2, 5, 10 and 20 mg/kg). Oxygen consumption and carbon dioxide production were continually monitored for the duration of the experiment. TTM induced a clear drop in oxygen consumption and carbon dioxide production at 10 and 20 mg/kg (FIG. 1), compared to time-matched control animals (sham) receiving only vehicle (saline)."}, "Male Wistar rats [2]": {"test_system": "Male Wistar rats", "test": "Study 2: core temperature in anaesthetised rats", "assay_type": "in vivo, rat", "conditions": "anaesthetised rats, 0.2, 2 and 20 mg/kg every 20 minutes; measured 20 minutes after the last dose, vs saline", "experimental": "Animals were anaesthetised and instrumented as above. Under continuous anaesthesia, TTM was administered every 20 minutes at increasing doses (0.2, 2 and 20 mg/kg). Core temperature was measured at the beginning of the experiment (i.e. before TTM administration) and 20 minutes after the last dose of the drug (20 mg/kg)."}, "endotoxaemic animals": {"test_system": "endotoxaemic animals", "test": "Study 3: core temperature during endotoxaemia (lipopolysaccharide, Klebsiella pneumoniae)", "assay_type": "in vivo, rat", "experimental": "FIG. 3: Protocol for endotoxaemia experiments. ETX is endotoxin, TTM is tetrathiomolybdate. Fluids: a 50:50 mix of colloid and crystalloid plus glucose. TTM was diluted in normal saline and administered as a 4 ml/kg bolus. Animals received a venous line for drug administration under anaesthesia. Endotoxaemia (which typically causes an increase in core temperature) was induced by intravenous administration of lipopolysaccharide (20 mg/kg, Klebsiella pneumoniae). TTM or vehicle was administered 1 h following the onset of endotoxaemia (FIG. 3; protocol)."}, "[3]": {"test": "Study 4: plasma sulphide after i.v. TTM (monobromobimane-based HPLC assay)", "assay_type": "in vivo, rat", "experimental": "This study investigated sulphide release from tetrathiomolybdate (TTM). Male Wistar rats were anaesthetized allowing insertion of carotid arterial and jugular venous lines for blood sampling and drug administration, respectively. Plasma sulphide levels (measured using a monobromobimane-based HPLC assay) were determined up to 2 h following bolus i.v. administration of TTM (10 mg/kg) or for 3 h after the onset of two continuous i.v. infusions (10 and 20 mg/kg/h)."}, "Soleus muscle fibres": {"test_system": "Soleus muscle fibres", "test": "Study 5: ex-vivo inhibition of oxygen consumption in permeabilized soleus muscle fibres (Clark electrode)", "conditions": "TTM 0.5-2 mM, saponin-permeabilized rat soleus muscle fibres", "experimental": "This study investivated ex-vivo Inhibition of oxygen consumption by TTM. Soleus muscle was removed from the hind limbs of male Wistar rats and preserved on ice in a physiological buffer solution. Muscle fibres were isolated with forceps and permeabilized with saponin. Muscle fibres were placed in a closed chamber containing a physiological solution and substrates for oxidative metabolism. Oxygen concentrations within the chamber were measured using a Clark electrode. The fall in oxygen concentration over time (gradient) reflects oxygen consumption by the tissue. Either vehicle or TTM (0.5-2 mM) was added to the chamber and oxygen consumption assessed. […] This further highlights the ability of TTM to decrease metabolism."}, "[4]": {"test_system": "rat model of haemorrhage/reperfusion injury", "test": "Study 6: rat model of haemorrhage/reperfusion injury", "assay_type": "in vivo", "experimental": "This study investigated effects of TTM in a rat model of haemorrhage/reperfusion injury. Male Wistar rats were anaesthetized for insertion of carotid arterial and jugular venous lines for blood removal and fluid/drug administration, respectively. After 30 min stabilization, 50% estimated circulating blood volume was removed from the arterial line over 15 min. Animals were monitored for a further 90 min prior to resuscitation, then randomized to receive either TTM or placebo (normal saline). TTM (10 mg/kg) was administered as an i.v. bolus (2 ml/kg). This was immediately followed by administration of shed blood over 15 min. In TTM-treated animals, the shed blood was supplemented with a further 2.5 mg/kg TTM; total dose 12.5 mg/kg. Placebo treated animals received equivalent volumes of fluid and administration of shed blood. Following resuscitation, both groups of animals received 10 ml/kg/h n-saline and were monitored up to 6 h post-resuscitation. […] Thus, TTM administration improves outcome following severe haemorrhage/reperfusion injury. This beneficial effect is potentially mediated by modulation of metabolism."}, "Wilson's disease": {"test_system": "Wilson's disease", "conditions": "cited from earlier work"}, "[5]": {"conditions": "awake rats, TTM i.v. hourly at increasing doses, effect at 10 and 20 mg/kg vs sham (saline)"}},
  "data": [
    {"compound": "[SH-].[SH-].[S]=[Mo]=[S]", "note": "[TTM, Tetrathiomolybdate]", "values": [
      {"measurement": "conscious level", "setting": "Male Wistar rats [1]; awake rats during intravenous infusion of TTM", "value": "conscious level was maintained"},
      {"measurement": "carbon dioxide production", "setting": "Male Wistar rats [1]; [5]", "value": "clear drop"},
      {"measurement": "oxygen consumption", "setting": "Male Wistar rats [1]; [5]", "value": "clear drop"},
      {"measurement": "core temperature", "setting": "Male Wistar rats [2]", "value": "decrease in core temperature"},
      {"measurement": "core temperature at highest dose", "setting": "endotoxaemic animals; TTM 20 mg/kg, 1 h after onset of endotoxaemia", "value": "induced significant hypothermia"},
      {"measurement": "hyperthermic response to endotoxin (core temperature)", "setting": "endotoxaemic animals; TTM given 1 h after onset of endotoxaemia (LPS 20 mg/kg i.v.)", "value": "ablated the hyperthermic response to endotoxin"},
      {"measurement": "plasma sulphide half-life", "setting": "[3]; bolus i.v. 10 mg/kg", "value": 17, "unit": "min"},
      {"measurement": "plasma sulphide levels", "setting": "[3]; bolus i.v. 10 mg/kg, up to 2 h", "value": "high levels of sulphide in plasma"},
      {"measurement": "time to steady state of plasma sulphide", "setting": "[3]; continuous i.v. infusion 10 and 20 mg/kg/h", "value": 2, "unit": "h"},
      {"measurement": "plasma sulphide levels", "setting": "[3]; continuous i.v. infusion 10 and 20 mg/kg/h, 3 h", "value": "dose-dependent increase in plasma sulphide levels"},
      {"measurement": "oxygen consumption ex vivo", "setting": "Soleus muscle fibres", "value": "dose-dependent inhibition of oxygen consumption"},
      {"measurement": "6 h survival post-resuscitation", "setting": "[4]; TTM 10 mg/kg i.v. bolus plus 2.5 mg/kg in shed blood (total 12.5 mg/kg) vs placebo", "value": "significant improvement in 6 h survival"},
      {"measurement": "core temperature", "setting": "[4]; TTM total dose 12.5 mg/kg, haemorrhage/reperfusion", "value": "Core temperature fell"}
    ]},
    {"compound": "ammonium TTM", "values": [
      {"measurement": "neurological function in patients who present with neurologic disease", "setting": "Wilson's disease", "value": "preserves neurological function"}
    ]}
  ]
}
